# From patent US10064839B2, “Methods of treating liver diseases” (Zafgen, Inc., priority 2012, dated 2018)
# Assays:
# MetAP1 = MetAP1 (Homo sapiens, UniProt P53582); assay: MetAP1 IC50; type: biochemical; conditions: second value of the cell; read-out: MetAP2/MetAP1 IC50 (nM): MetAP1
# [1] = tested on: Cell cycle (G1 attenuation); assay: Cell cycle (G1 attenuation); type: cell-based
# [2] = Plasma protein binding, human; type: in vitro ADME; conditions: read-out: Plasma protein binding (h/r/m, %): h (converted)
# [3] = Plasma protein binding, rat; type: in vitro ADME; conditions: read-out: Plasma protein binding (h/r/m, %): r (converted)
# [4] = Plasma protein binding, mouse; type: in vitro ADME; conditions: read-out: Plasma protein binding (h/r/m, %): m
# [5] = i.v. and p.o. exposure study, mouse; type: in vivo
# Description: (§1) Mouse, rat and dog studies were conducted to assess i.v. and p.o. (oral) exposure.
# [6] = i.v. and p.o. exposure study, dog; type: in vivo; conditions: plasma
# Description: as §1
# [7] = tested on: Diet induced obese (DIO) C57BL6 mice; assay: Diet induced obese mouse study of compound A; type: in vivo
# Description: Diet induced obese (DIO) C57BL6 mice were provided with varying doses of compound A and fumagillin (fum). Tissue biomarkers in peri-renal fat, mesenteric fat and the liver were measured.
# (FIG. 3). Decrease in plasma insulin in mice, after once or twice a day administration of compound A vs. vehicle is also observed (FIG. 4).
# NASH mice = assay: Non-alcoholic steatohepatitis (STZ + high fat diet) mouse model; type: in vivo; conditions: for Mean body weight at the day before sacrifice: 5 to 9 weeks of age, Vehicle 18.8±1.0 g; for Fibrosis area (Sirius red-positive area): Vehicle 1.07±0.18%; for Inflammation area (F4/80-positive area): Vehicle 3.57±0.88%; for Fat deposition area (oil red-positive area): Vehicle 23.57±6.52%; for Liver TG content: Vehicle 67.3±29.0; for Whole blood HbA1c levels: FIG. 9; for NAFLD Activity score (NAS): Vehicle 5.4±0.9
# Description: NASH was induced in 48 male mice by a single subcutaneous injection of 200 μg streptozotocin (STZ; Sigma-Aldrich) in the back of mice 2 days after birth, and by feeding with high fat diet (HFD; 57 kcal % fat) after 4 weeks of age. At 5 weeks of age, the NASH mice were randomized into 6 groups of 8 mice based on body weight. Eight male littermates, fed with normal diet (without STZ treatment, were used for the Normal group. Vehicle, Compound A and Telmisartan were administered by the oral route in a volume of 10 mL/kg body weight.
# Compound A was administered twice daily at doses of 1, 3 or 10 mg/kg body weight (i.e., 2, 6 or 20 mg/kg/day) and once daily at dose of 30 mg/kg body weight. Telmisartan was administered once daily at a dose of 10 mg/kg body weight.
# C57BL/6 mice (15-day pregnant female) were obtained from Charles River Laboratories Japan (Japan). The animals were maintained in a SPF facility under controlled conditions of temperature (23±2° C.), humidity (45±10%), lighting (12-hour artificial light and dark cycles; light from 8:00 to 20:00) and air exchange. A high pressure (20±4 Pa) was maintained in the experimental room to prevent contamination of the facility.
# Mice were fasted for 4 hours before blood was collected at the time of sacrifice. HbA1c levels were quantified in whole blood samples by DCA Vantage Analyzer (Siemens Healthcare Diagnostics, USA). For plasma biochemistry, blood was collected in polypropylene tubes with anticoagulant (Novo-Heparin;) and centrifuged at 1,000×g for 15 minutes at 4° C. The supernatant was collected and stored at −80° C. until use. Plasma levels of glucose, ALT, TG and total cholesterol were measured by FUJI DRI-CHEM 7000 (Fujifilm, Japan). Plasma insulin concentration was quantified by the Ultra Sensitive Mouse Insulin ELISA Kit.
# Liver total lipid-extracts were obtained by Folch's method (Folch J. et al., J. Biol. Chem. 1957; 226: 497). Liver samples were homogenized in chloroform-methanol (2:1, v/v) and incubated overnight at room temperature. After washing with chloroform-methanol-water (8:4:3, v/v/v), the extracts were evaporated to dryness, and dissolved in isopropanol. Liver TG levels were measured by Triglyceride E-test (Wako Pure Chemical Industries). Extracts were diluted 2-fold in isopropanol when the TG content exceeded the detection limit.
# For HE staining, sections were cut from paraffin blocks of liver tissue prefixed in Bouin's solution and stained with Lillie-Mayer's Hematoxylin (Muto Pure Chemicals, Japan) and eosin solution (Wako Pure Chemical Industries). NAFLD Activity score (NAS) was calculated according to the criteria of Kleiner (Kleiner D E et al., Hepatology, 2005; 41:1313). To visualize collagen deposition, Bouin's fixed liver sections were stained using picro-Sirius red solution (Waldeck, Germany). To visualize macro- and microvesicular fat, cryosections were cut from frozen liver tissues, prefixed in 10% neutral buffered formalin, embedded in Tissue-Tek O.C.T. compound (Sakura Finetek Japan, Japan), and stained with Oil Red O (Sigma-Aldrich). For immunohistochemistry, sections were cut from frozen liver tissues embedded in Tissue-Tek O.C.T. compound and fixed in acetone. Endogenous peroxidase activity was blocked using 0.03% H2O2 for 5 minutes, followed by incubation with Block Ace (Dainippon Sumitomo Pharma, Japan) for 10 minutes. The sections were incubated with a 200-fold dilution of anti-F4/80 antibody (BMA Biomedicals, Switzerland) over night at 4° C. After incubation with secondary antibody (HRP-Goat anti-rat antibody, Invitrogen, USA), enzyme-substrate reactions were performed using 3, 3′-diaminobenzidine/H2O2 solution (Nichirei, Japan). […]
smiles,measurement,setting,value
"CCN(CC)C/C=C\c1cc(F)ccc1S(=O)(=O)Nc1ccc2c(c1C(=O)O)OC[C@@H]1C[C@H]21 (single isomer, unassigned) [Example 12]",IC50,MetAP1,50000 nM
same,"Cell cycle (G1 attenuation, nM)",[1],3 nM
same,fraction unbound,[2],0.228
same,fraction unbound,[3],0.189
same,fraction unbound,[4],> 0.3
same,Kp,"[5]; liver/plasma, po, read-out: liver/plasma ratio",38
same,clearance,"[5]; plasma, iv",126 mL/min/kg
same,half-life,"[5]; plasma, iv, read-out: Plasma T1/2 (converted)",0.9 h
same,Vd,"[5]; plasma, iv, read-out: Vss",3.1 L/kg
same,AUC,"[5]; plasma, po",497 ng·h/mL
same,bioavailability,"[5]; plasma, po",53%
same,clearance,[6]; iv,14 mL/min/kg
same,half-life,"[6]; iv, read-out: Plasma T1/2 (converted)",3.6 h
same,Vd,"[6]; iv, read-out: Vss",1.3 L/kg
same,AUC,[6]; po,711 ng·h/mL
same,bioavailability,[6]; po,20%
same,Expression of genes implicated in pathogenesis of fatty liver and fibrosis (liver mRNA microarray),"[7]; 3 mg/kg/bid×10 days, DIO obese mice, FIG. 6",favorably regulated
same,"Tissue biomarkers in peri-renal fat, mesenteric fat and the liver","[7]; DIO C57BL6 mice, varying doses, FIG. 1",primarily targets the liver
same,Liver weight,[7]; FIG. 5,reduction
same,Mesenteric adipose tissue weight,[7]; FIG. 5,reduction
same,Change in bodyweight after 10 days,"[7]; obese mice, increasing doses over 10 days, vs vehicle, FIG. 2",marked decrease in body weight
same,Blood cholesterol,"[7]; obese mice, vs vehicle, FIG. 3",marked lowering
same,Blood glucose,"[7]; obese mice, vs vehicle, FIG. 3",marked lowering
same,Plasma insulin,"[7]; once or twice a day administration vs vehicle, FIG. 4",Decrease
same,HE-stained liver sections vs Vehicle group,NASH mice; 1 mg/kg (BID),No obvious differences
same,Mean body weight at the day before sacrifice,NASH mice; 1 mg/kg (BID) oral,19.2 ± 1.4 g
same,Fibrosis area (Sirius red-positive area),NASH mice; 1 mg/kg (BID),1.12±0.46%
same,Inflammation area (F4/80-positive area),NASH mice; 1 mg/kg (BID),3.67±0.91%
same,Fat deposition area (oil red-positive area),NASH mice; 1 mg/kg (BID),18.47±5.22%
same,Liver TG content,NASH mice; 1 mg/kg (BID),71.7±30.3 mg/g liver
same,Hepatocellular ballooning and inflammatory cell infiltration vs Vehicle group,NASH mice; 3 mg/kg (BID),decrease
same,Mean body weight at the day before sacrifice,NASH mice; 3 mg/kg (BID) oral,18.7 ± 1.4 g
same,Whole blood HbA1c levels,NASH mice; 3 mg/kg (BID),decreased
same,Fibrosis area (Sirius red-positive area),NASH mice; 3 mg/kg (BID),0.89±0.32%
same,Inflammation area (F4/80-positive area),NASH mice; 3 mg/kg (BID),3.47±0.65%
same,NAFLD Activity score (NAS),NASH mice; 3 mg/kg (BID),3.6±1.6
same,Fat deposition area (oil red-positive area),NASH mice; 3 mg/kg (BID),19.53±4.64%
same,Liver TG content,NASH mice; 3 mg/kg (BID),52.9±18.5 mg/g liver
same,Hepatocellular ballooning and inflammatory cell infiltration vs Vehicle group,NASH mice; 10 mg/kg (BID),decrease
same,Mean body weight at the day before sacrifice,NASH mice; 10 mg/kg (BID) oral,18.7 ± 1.0 g
same,Whole blood HbA1c levels,NASH mice; 10 mg/kg (BID),decreased
same,Fibrosis area (Sirius red-positive area),NASH mice; 10 mg/kg (BID),1.07±0.31%
same,Inflammation area (F4/80-positive area),NASH mice; 10 mg/kg (BID),3.82±0.57%
same,NAFLD Activity score (NAS),NASH mice; 10 mg/kg (BID),3.4±1.5
same,Fat deposition area (oil red-positive area),NASH mice; 10 mg/kg (BID),23.31±9.18%
same,Liver TG content,NASH mice; 10 mg/kg (BID),56.7±25.8 mg/g liver
same,HE-stained liver sections vs Vehicle group,NASH mice; 30 mg/kg (QD),No obvious differences
same,Mean body weight at the day before sacrifice,NASH mice; 30 mg/kg (QD) oral,17.9 ± 0.9 g
same,Fibrosis area (Sirius red-positive area),NASH mice; 30 mg/kg (QD),0.99±0.43%
same,Inflammation area (F4/80-positive area),NASH mice; 30 mg/kg (QD),3.90±0.78%
same,Fat deposition area (oil red-positive area),NASH mice; 30 mg/kg (QD),22.30±9.59%
same,Liver TG content,NASH mice; 30 mg/kg (QD),62.4±18.1 mg/g liver
same,Plasma total cholesterol levels,"NASH mice; BID dosing, dose dependent, FIG. 10",decreased
same,NAS,NASH mice; QD dosing (30 mg/kg),did not show evident improvement
same,Plasma total cholesterol levels,NASH mice; QD dosing (30 mg/kg),significantly decreased
same,Whole blood HbA1c,NASH mice; QD dosing (30 mg/kg),did not show evident improvement
